Results taken from patent US7964638B2, “Skin cosmetic and wrinkle-reducing agent” (Kao Corporation, priority 2005, dated 2011).

Experiment: Normal safety test

O[C@@H]1CO[C@H]2[C@@H]1OC[C@@H]2O [isosorbide]
Normal safety test: no problem occurred
